Measured values: US7304093B2, “Ketone compounds and compositions for cholesterol management and related uses” (Esperion Therapeutics, Inc., priority 2000, dated 2007)
Like-named read-outs stand apart in the source and are kept apart here.

What was measured:
female obese Zucker rats = assay: Serum lipid and glycemic control variables in chow-fed obese female Zucker rats, daily oral gavage for two weeks; type: in vivo, rat; conditions: Rattus norvegicus; for change in vivo at 30 mg/kg: 30 mg/kg daily oral; for change in vivo at 100 mg/kg: 100 mg/kg daily oral; for change in vivo at 59 mg/kg: 59 mg/kg daily oral
Method: Ten- to twelve-week old (400-500 grams) female Zucker fatty rats Cr1: (Zuc)-faBR were obtained from Charles River Laboratories. Animals were acclimated to the laboratory environment for seven days. During the acclimation and study period, animals were housed by group in shoebox polycarbonate cages on Cellu-Dri bedding. The temperature and humidity in the animals' quarters (68-78° F.; 30-75% RH) were monitored and the airflow in the room was sufficient to provide several exchanges per hour with 100% fresh filtered air. An automatic timing device provided an alternating 12-hour cycle of light and dark. Rats received pelleted Purina Laboratory Rodent Chow® (5001) prior to and during the drug intervention period except for a 6-hour phase prior to blood sampling. Fresh water was supplied ad libitum via an automatic watering system. Compounds were dissolved, suspended by mixing in a dosing vehicle consisting of 1.5% carboxymethylcellulose/0.2% Tween 20 or 20% ethanol and 80% polyethylene glycol-200 [v/v]. Dose volume of vehicle or vehicle plus each compound was set at 0.25% of body weight in order to deliver the appropriate dose. Doses were administered daily by oral gavage, approximately between 8-10 AM. Regarding blood sampling, animals were fasted for 6 hours prior to all blood collections. Prior to and after 7 days of dosing, a 1.0- to 2.0-mL sample of blood was collected by administering O2/CO2 anesthesia and bleeding from the orbital venous plexus. Following 14 days of dosing, blood was collected by cardiac puncture after euthanasia with CO2. All blood samples were processed for separation of serum and stored at −80° C. until analysis. Commercially available kits were used to determine serum triglycerides (Roche Diagnostic Corporation, Kit No. 148899 or Boehringer Mannheim, Kit No. 1488872), total cholesterol (Roche Diagnostic Corporation, Kit No. 450061), non-esterified fatty acids (Wako Chemicals, Kit No. 994-75409) and β-hydroxybutyrate (Wako Chemicals, Kit No. 417-73501 or Sigma Kit. No. 310-0) on a Hitachi 912 Automatic Analyzer (Roche Diagnostic Corporation). In some instances, an in-house cholesterol reagent was used to determine total serum cholesterol levels. Serum lipoprotein cholesterol levels were determined by lipoprotein profile analysis. Lipoprotein profiles were analyzed using gel-filtration chromatography on a Superose 6HR (1×30 cm) column equipped with on-line detection of total cholesterol as described by Kieft et al (Kieft, K. A.; Bocan, T. M.; Krause, B. R. Rapid on-line determination of cholesterol distribution among plasma lipoproteins after high-performance gel filtration chromatography. J. Lipid Res. 1991, 32, 859-866.). The total cholesterol content of each lipoprotein was calculated by multiplying the independent values determined for serum total cholesterol by the percent area of each lipoprotein in the profile. The percent body weight gain and the ratio of liver to body weight is also determined. Selected data are shown as absolute values or as a percent change of the pretreatment values in Tables 8 and 9.
Select compounds (214c, 210c, and 210g) were further evalutated in the Zucker rat by performing a full dose response and measuring additional scrum variables including markers for diabetes (Tables 10-12).

primary rat hepatocytes = assay: Inhibition of lipid synthesis ([1-14C]-acetate incorporation) in primary cultures of rat hepatocytes; type: cell-based; conditions: Hepatocyte, 4 h incubation with [1-14C]-acetate
Method: Compounds were tested for inhibition of lipid synthesis in primary cultures of rat hepatocytes. Male Sprague-Dawley rats were anesthetized with intraperitoneal injection of sodium pentobarbital (80 mg/kg). Rat hepatocytes were isolated essentially as described by the method of Seglen (Seglen, P. O. Hepatocyte suspensions and cultures as tools in experimental carcinogenesis. J. Toxicol. Environ. Health 1979, 5, 551-560). Hepatocytes were suspended in Dulbecco's Modified Eagles Medium containing 25 mM D-glucose, 14 mM HEPES, 5 mM L-glutamine, 5 mM leucine, 5 mM alanine, 10 mM lactate, 1 mM pyruvate, 0.2% bovine serum albumin, 17.4 mM non-essential amino acids, 20% fetal bovine serum, […] and 20 μg/mL gentamycin) and plated at a density of 1.5×10^5 cells/cm^2 on collagen-coated 96-well plates. Four hours after plating, media was replaced with the same media without serum. Cells were grown overnight to allow formation of monolayer cultures. Lipid synthesis incubation conditions were initially assessed to ensure the linearity of [1-^14C]-acetate incorporation into hepatocyte lipids for up to 4 hours. Hepatocyte lipid synthesis inhibitory activity was assessed during incubations in the presence of 0.25 μCi [1-^14C]-acetate/well (final radiospecific activity in assay is 1 Ci/mol) and 0, 1, 3, 10, 30, 100 or 300 μM of compounds for 4 hours. At the end of the 4-hour incubation period, medium was discarded and cells were washed twice with ice-cold phosphate buffered saline and stored frozen prior to analysis. To determine total lipid synthesis, 170 μl of MicroScint-E® and 50 μl water was added to each well to extract and partition the lipid soluble products to the upper organic phase containing the scintillant. Lipid radioactivity was assessed by scintillation spectroscopy in a Packard TopCount NXT.

[1] = 168 h, 1 wk, Table 9, read-out: HDL-Cholesterol, Percent Change from Pre-Treatment
[2] = 168 h, 1 wk, Table 9, read-out: NonHDL-Cholesterol, Percent Change from Pre-Treatment
[3] = 168 h, 1 wk, Table 9, read-out: TG, Percent Change from Pre-Treatment
[4] = 336 h, 2 wk, Table 9, read-out: HDL-Cholesterol, Percent Change from Pre-Treatment
[5] = 336 h, 2 wk, Table 9, read-out: NonHDL-Cholesterol, Percent Change from Pre-Treatment
[6] = 336 h, 2 wk, Table 9, read-out: TG, Percent Change from Pre-Treatment
[7] = Table 7, ranges: confidence of estimate insufficient to assign a value
[8] = 168 h, 1 wk, 100% = 2-fold increase, Table 8, read-out: HDL-Cholesterol, Percent Change from Pre-Treatment
[9] = 168 h, 1 wk, 100% = 2-fold increase, Table 8, read-out: NonHDL-Cholesterol, Percent Change from Pre-Treatment
[10] = 168 h, 1 wk, 100% = 2-fold increase, Table 8, read-out: TG, Percent Change from Pre-Treatment
[11] = 336 h, 2 wk, 100% = 2-fold increase, Table 8, read-out: HDL-Cholesterol, Percent Change from Pre-Treatment
[12] = 336 h, 2 wk, 100% = 2-fold increase, Table 8, read-out: NonHDL-Cholesterol, Percent Change from Pre-Treatment
[13] = 336 h, 2 wk, 100% = 2-fold increase, Table 8, read-out: TG, Percent Change from Pre-Treatment

Row | melting point [°C] | Compound | change in vivo at 30 mg/kg (female obese Zucker rats; [1]) [%] | change in vivo at 30 mg/kg (female obese Zucker rats; [2]) [%] | change in vivo at 30 mg/kg (female obese Zucker rats; [3]) [%] | change in vivo at 30 mg/kg (female obese Zucker rats; [4]) [%] | change in vivo at 30 mg/kg (female obese Zucker rats; [5]) [%] | change in vivo at 30 mg/kg (female obese Zucker rats; [6]) [%] | IC50 (primary rat hepatocytes; [7]) [µM] | change in vivo at 100 mg/kg (female obese Zucker rats; [8]) [%] | change in vivo at 100 mg/kg (female obese Zucker rats; [9]) [%] | change in vivo at 100 mg/kg (female obese Zucker rats; [10]) [%] | change in vivo at 100 mg/kg (female obese Zucker rats; [11]) [%] | change in vivo at 100 mg/kg (female obese Zucker rats; [12]) [%] | change in vivo at 100 mg/kg (female obese Zucker rats; [13]) [%] | IC50 (primary rat hepatocytes; Table 6) [µM] | other results
1 | 44 to 46 | CC(CCCC(=O)CCCC(C)(C(=O)O)c1ccccc1)(C(=O)O)c1ccccc1 (centres unmarked) [Compound 210b, 2,10-Dimethyl-6-oxo-2,10-diphenylundecanedioic acid] | – | – | – | – | – | – | – | – | – | – | – | – | – | – | change in vivo at 100 mg/kg (female obese Zucker rats; [1]): 4%; change in vivo at 100 mg/kg (female obese Zucker rats; [2]): 36%; change in vivo at 100 mg/kg (female obese Zucker rats; [3]): 10%; change in vivo at 100 mg/kg (female obese Zucker rats; [4]): 12%; change in vivo at 100 mg/kg (female obese Zucker rats; [5]): 65%; change in vivo at 100 mg/kg (female obese Zucker rats; [6]): 26%
2 | 46 to 48 | CC(C)(Cc1cccc(C(=O)c2cccc(CC(C)(C)C(=O)O)c2)c1)C(=O)O [Compound 231, 3-{3-[3-(2-Carboxy-2-methylpropyl)-benzoyl]-phenyl}-2,2-dimethylpropionic acid] | – | – | – | – | – | – | – | – | – | – | – | – | – | – | change in vivo at 59 mg/kg (female obese Zucker rats; [1]): 2%; change in vivo at 59 mg/kg (female obese Zucker rats; [2]): -43%; change in vivo at 59 mg/kg (female obese Zucker rats; [3]): -24%; change in vivo at 59 mg/kg (female obese Zucker rats; [4]): 7%; change in vivo at 59 mg/kg (female obese Zucker rats; [5]): 34%; change in vivo at 59 mg/kg (female obese Zucker rats; [6]): 7%
3 | 78 to 85 | O=C(CCCCCC1(C(=O)O)CCCC1)CCCCCC1(C(=O)O)CCCC1 [Compound 107m, 1-[11-(1-Carboxycyclopentyl)-6-oxoundecyl]-1-cyclopentanecarboxylic acid] | – | – | – | – | – | – | – | 12 | -54 | -63 | 27 | -32 | -48 | 2 | –
4 | 61 to 62 | CC(C)(CCCCCC(=O)CCCCC(C)(C)C(=O)O)C(=O)O [Compound 226, 2,2,13,13-Tetramethyl-7-oxotetradecanedioc acid] | – | – | – | – | – | – | 3 | – | – | – | – | – | – | – | change in vivo at 100 mg/kg (female obese Zucker rats; [1]): 240%; change in vivo at 100 mg/kg (female obese Zucker rats; [2]): -30%; change in vivo at 100 mg/kg (female obese Zucker rats; [3]): -65%; change in vivo at 100 mg/kg (female obese Zucker rats; [4]): 72%; change in vivo at 100 mg/kg (female obese Zucker rats; [5]): -51%; change in vivo at 100 mg/kg (female obese Zucker rats; [6]): -62%

More lines, now with the values behind:

Row | Compound | melting point [°C] | change in vivo at 30 mg/kg (female obese Zucker rats; [1]) [%] | change in vivo at 30 mg/kg (female obese Zucker rats; [2]) [%] | change in vivo at 30 mg/kg (female obese Zucker rats; [3]) [%] | change in vivo at 30 mg/kg (female obese Zucker rats; [4]) [%] | change in vivo at 30 mg/kg (female obese Zucker rats; [5]) [%] | change in vivo at 30 mg/kg (female obese Zucker rats; [6]) [%] | IC50 (primary rat hepatocytes; [7]) [µM] | change in vivo at 100 mg/kg (female obese Zucker rats; [8]) [%] | change in vivo at 100 mg/kg (female obese Zucker rats; [9]) [%] | change in vivo at 100 mg/kg (female obese Zucker rats; [10]) [%] | change in vivo at 100 mg/kg (female obese Zucker rats; [11]) [%] | change in vivo at 100 mg/kg (female obese Zucker rats; [12]) [%] | change in vivo at 100 mg/kg (female obese Zucker rats; [13]) [%] | IC50 (primary rat hepatocytes; Table 6) [µM] | other results
5 | CC(C)(CCCCC(=O)CCCC(C)(C)C(=O)O)C(=O)O [Compound 225, 2,2,11,11-Tetramethyl-6-oxododecanedioc acid] | 72 to 73 | 7 | -17 | -2 | 4 | 92 | -22 | 8 | – | – | – | – | – | – | – | –
6 | Cc1ccc(C(C)(CCCCC(=O)CCCCC(C)(C(=O)O)c2ccc(C)cc2)C(=O)O)cc1 (centres unmarked) [Compound 210e, 2,12-Dimethyl-7-oxo-2,12-di-p-tolyltridecanedioic acid] | 48 to 50 | 0 | 0 | -11 | 10 | 47 | 12 | 100 to 300 | – | – | – | – | – | – | – | –
7 | CC(C)(CCCCC(=O)CCCCC1(C(=O)O)CCC1)C(=O)O [Compound 107e, 11-(1-Carboxycyclobutyl)-2,2-dimethyl-7-oxoundecanoic acid] | 53 to 55 | – | – | – | – | – | – | – | 30 | 4 | -54 | 60 | 28 | -51 | 6 | –
8 | CC(C)(CCCCCC(=O)CCCCCC1(C(=O)O)CC1)C(=O)O [Compound 107k, 13-(1-Carboxycyclopropyl)-2,2-dimethyl-8-oxotridecanoic acid] | 65 to 66 | – | – | – | – | – | – | – | 43 | -90 | -93 | 84 | -99 | -98 | 1 | –
9 | O=C(CCCCC1(C(=O)O)CCCC1)CCCCC1(C(=O)O)CCCC1 [Compound 107g, 1-[9-(1-Carboxycyclopentyl)-5-oxononyl]-1-cyclopentanecarboxylic acid] | 99 to 103 | – | – | – | – | – | – | – | 36 | -68 | -67 | 40 | -67 | -70 | 113 | –
10 | CC(CO)(CCCCC(=O)CCCCC(C)(CO)c1ccccc1)c1ccccc1 (centres unmarked) [Compound 214d, 1,13-Dihydroxy-2,12-dimethyl-2,12-diphenyltridecan-7-one] | – | -1 | -30 | -24 | -27 | 30 | 20 | 100 to 300 | – | – | – | – | – | – | – | –
